In US9580390B2, “Indazole compounds as kinase inhibitors and method of treating cancer with same” (University Health Network, priority 2011, dated 2017):
Like-named read-outs stand apart in the source and are kept apart here.

How the values were obtained:
human TTK = target: T1, human TTK (Homo sapiens, UniProt P33981); assay: TTK inhibition assay (indirect ELISA); type: biochemical; details: read-out: TTK IC50 Range
T1 construct: amino terminal GST fusion of full length human TTK; purchased Invitrogen
T1 sequence (P33981 1-857): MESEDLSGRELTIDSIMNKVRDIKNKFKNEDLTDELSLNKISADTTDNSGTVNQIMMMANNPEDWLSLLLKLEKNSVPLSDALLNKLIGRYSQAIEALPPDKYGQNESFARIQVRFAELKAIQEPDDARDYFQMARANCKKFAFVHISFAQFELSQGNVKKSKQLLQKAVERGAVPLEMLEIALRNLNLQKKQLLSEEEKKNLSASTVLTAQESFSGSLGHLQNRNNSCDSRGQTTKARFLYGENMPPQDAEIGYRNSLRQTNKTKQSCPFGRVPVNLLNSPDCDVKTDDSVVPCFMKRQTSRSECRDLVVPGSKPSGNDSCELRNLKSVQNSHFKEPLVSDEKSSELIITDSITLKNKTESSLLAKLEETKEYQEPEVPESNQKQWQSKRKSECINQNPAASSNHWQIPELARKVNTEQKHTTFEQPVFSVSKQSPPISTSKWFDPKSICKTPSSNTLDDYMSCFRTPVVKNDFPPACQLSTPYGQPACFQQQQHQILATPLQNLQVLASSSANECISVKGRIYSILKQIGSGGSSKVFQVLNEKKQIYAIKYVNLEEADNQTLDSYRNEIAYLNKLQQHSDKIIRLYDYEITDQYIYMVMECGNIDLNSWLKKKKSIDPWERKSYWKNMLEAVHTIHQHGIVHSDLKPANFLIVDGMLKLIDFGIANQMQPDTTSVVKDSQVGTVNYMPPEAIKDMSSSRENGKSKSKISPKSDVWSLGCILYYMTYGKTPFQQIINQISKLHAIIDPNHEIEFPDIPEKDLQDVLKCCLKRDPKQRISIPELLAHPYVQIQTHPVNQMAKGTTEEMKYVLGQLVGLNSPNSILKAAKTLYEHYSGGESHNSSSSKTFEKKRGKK

[1] = test system: colon cancer cells (HCT116); assay: Cancer cell line growth inhibition (SRB assay); type: cell-based; details: read-out: Cancer Cell Line GI50 Range HCT116
[2] = test system: ovarian cancer cells (PA-1); assay: Cancer cell line growth inhibition (SRB assay); type: cell-based; details: read-out: Cancer Cell Line GI50 Range PA-1
[3] = Homo sapiens, HCT-116, HCT116 colon cancer cells, SRB assay
[4] = PA-1 ovarian cancer cells, SRB assay

| Structure (SMILES) | IC50 (human TTK) [µM] | GI50 ([1]; Homo sapiens, HCT-116) [µM] | GI50 ([2]; Homo sapiens, PA-1) [µM] | GI50 ([1]; HCT116) [µM] | GI50 ([2]; PA-1) [µM] | GI50 [1, 3] [µM] | GI50 [2, 4] [µM] |
| --- | --- | --- | --- | --- | --- | --- | --- |
| O=C(NC(c1ccccn1)C1CCCC1)c1ccc2[nH]nc(-c3ccc(OC4CCN(C5COC5)CC4)cc3)c2c1 (stereo not drawn) [Example A319, N-(cyclopentyl(pyridin-2-yl)methyl)-3-(4-((1-(oxetan-3-yl)piperidin-4-yl)oxy)phenyl)-1H-indazole-5-carboxamide] | < 0.1 | 0.1 to 0.5 | < 0.1 | – | – | – | – |
| CC(C)C(NC(=O)c1ccc2[nH]nc(-c3ccc(OC4CCN(C5COC5)CC4)cc3)c2c1)c1ccccn1 (stereo not drawn) [Example A327, N-(2-methyl-1-(pyridin-2-yl)propyl)-3-(4-((1-(oxetan-3-yl)piperidin-4-yl)oxy)phenyl)-1H-indazole-5-carboxamide] | < 0.1 | < 0.1 | < 0.1 | – | – | – | – |
| O=CN1CCC(Oc2ccc(-c3n[nH]c4ccc(C(=O)NC(c5ccsc5)C5CCC5)cc34)cc2)CC1 (stereo not drawn) [Example A330, N-(cyclobutyl(thiophen-3-yl)methyl)-3-(4-((1-formylpiperidin-4-yl)oxy)phenyl)-1H-indazole-5-carboxamide] | < 0.1 | < 0.1 | < 0.1 | – | – | – | – |
| CC(C)(O)C1CCN(c2ccc(-c3n[nH]c4ccc(C(=O)N[C@H](c5ccccn5)C5CC5)cc34)cc2)CC1 [Example A351, (S)-N-(cyclopropyl(pyridin-2-yl)methyl)-3-(4-(4-(2-hydroxypropan-2-yl)piperidin-1-yl)phenyl)-1H-indazole-5-carboxamide] | < 0.1 | < 0.1 | < 0.1 | – | – | – | – |
| O=C(N[C@@H](c1ccccn1)C1CC1)c1ccc2[nH]nc(-c3ccc(OC4CC5CCC(C4)N5C4COC4)cc3)c2c1 (stereo partly drawn) [Example A352, N-((R)-cyclopropyl(pyridin-2-yl)methyl)-3-(4-(((1R,3R,5S)-8-(oxetan-3-yl)-8-azabicyclo[3.2.1]octan-3-yl)oxy)phenyl)-1H-indazole-5-carboxamide] | < 0.1 | 0.1 to 0.5 | 0.1 to 0.5 | – | – | – | – |
| O=CN1C2CCC1CC(Oc1ccc(-c3n[nH]c4ccc(C(=O)N[C@@H](c5ccccn5)C5CC5)cc34)cc1)C2 (stereo partly drawn) [Example A353, N-((R)-cyclopropyl(pyridin-2-yl)methyl)-3-(4-(((1R,3R,5S)-8-formyl-8-azabicyclo[3.2.1]octan-3-yl)oxy)phenyl)-1H-indazole-5-carboxamide] | < 0.1 | < 0.1 | < 0.1 | – | – | – | – |
| C[C@H](O)C(=O)N1CCC(Oc2ccc(-c3n[nH]c4ccc(C(=O)N[C@H](c5ccccc5)C5CC5)cc34)cc2)CC1 [Example A377, N-((S)-cyclopropyl(phenyl)methyl)-3-(4-((1-((S)-2-hydroxypropanoyl)piperidin-4-yl)oxy)phenyl)-1H-indazole-5-carboxamide] | < 0.1 | 0.1 to 0.5 | 0.1 to 0.5 | – | – | – | – |
| CC(C)(O)C(=O)N1CCC(Oc2ccc(-c3n[nH]c4ccc(C(=O)N[C@H](c5ccccc5)C5CC5)cc34)cc2)CC1 [Example A381, (S)-N-(cyclopropyl(phenyl)methyl)-3-(4-((1-(2-hydroxy-2-methylpropanoyl)piperidin-4-yl)oxy)phenyl)-1H-indazole-5-carboxamide] | < 0.1 | 0.1 to 0.5 | 0.1 to 0.5 | – | – | – | – |
| O=C(N[C@H](c1ccccc1)C1CC1)c1ccc2[nH]nc(-c3ccc(OC4CCN(C(=O)CO)CC4)cc3)c2c1 [Example A382, (S)-N-(cyclopropyl(phenyl)methyl)-3-(4-((1-(2-hydroxyacetyl)piperidin-4-yl)oxy)phenyl)-1H-indazole-5-carboxamide] | < 0.1 | < 0.1 | < 0.1 | – | – | – | – |
| O=C(NC(c1ccccn1)C1CC1)c1ccc2[nH]nc(-c3ccc(N4CCOCC4)cc3)c2c1 (stereo not drawn) [Example A383, N-(cyclopropyl(pyridin-2-yl)methyl)-3-(4-morpholinophenyl)-1H-indazole-5-carboxamide] | < 0.1 | 0.1 to 0.5 | 0.1 to 0.5 | – | – | – | – |
| O=C(NC(c1ccccn1)C1CC1)c1ccc2[nH]nc(-c3ccc(N4CCN(CCO)CC4)cc3)c2c1 (stereo not drawn) [Example A384, N-(cyclopropyl(pyridin-2-yl)methyl)-3-(4-(4-(2-hydroxyethyl)piperazin-1-yl)phenyl)-1H-indazole-5-carboxamide] | < 0.1 | 0.1 to 0.5 | 0.1 to 0.5 | – | – | – | – |
| CN1C2COCC1CC(Oc1ccc(-c3n[nH]c4ccc(C(=O)N[C@H](c5ccccn5)C5CC5)cc34)cc1)C2 (stereo partly drawn) [Example A389, N-((S)-cyclopropyl(pyridin-2-yl)methyl)-3-(4-(((1R,5S,7s)-9-methyl-3-oxa-9-azabicyclo[3.3.1]nonan-7-yl)oxy)phenyl)-1H-indazole-5-carboxamide] | < 0.1 | < 0.1 | < 0.1 | – | – | – | – |
| CN1C2COCC1CC(Oc1ccc(-c3n[nH]c4ccc(C(=O)NC(c5ccccn5)C5CCCC5)cc34)cc1)C2 [Example A392, N-(cyclopentyl (pyridin-2-yl)methyl)-3-(4-(((1R,5S,7s)-9-methyl-3-oxa-9-azabicyclo [3.3.1]nonan-7-yl)oxy)phenyl)-1H-indazole-5-carboxamide] | < 0.1 | < 0.1 | < 0.1 | – | – | – | – |
| CC(C)C(NC(=O)c1ccc2[nH]nc(-c3ccc(OC4CC5COCC(C4)N5C)cc3)c2c1)c1ccccc1Cl [Example A393, N-(1-(2-chlorophenyl)-2-mcthylpropyl)-3-(4-(((1R,5S,7s)-9-methy]-3-oxa-9-azabicyclo[3.3.1]nonan-7-yl)oxy)phenyl)-1H-indazole-5-carboxamide] | < 0.1 | < 0.1 | < 0.1 | – | – | – | – |
| CC(C)C(NC(=O)c1ccc2[nH]nc(-c3ccc(OC4CC5CCC(C4)N5C)cc3)c2c1)c1ccccn1 (stereo not drawn) [Example A396, N-(2-methyl-1-(pyridin-2-yl)propyl)-3-(4-((8-methyl-8-azabicyclo [3.2.1]octan-3-yl)oxy)phenyl)-1H-indazole-5-carboxamide] | < 0.1 | – | – | < 0.1 | < 0.1 | – | – |
| CN1C2CCC1CC(Oc1ccc(-c3n[nH]c4ccc(C(=O)N[C@H](c5ccccn5)C5CC5)cc34)cc1)C2 (stereo partly drawn) [Example A397, N-((S)-cyclopropyl(pyridin-2-yl)methyl)-3-(4-((8-methyl-8-azabicyclo[3.2.1]octan-3-yl)oxy)phenyl)-1H-indazole-5-carboxamide] | < 0.1 | < 0.1 | < 0.1 | – | – | – | – |
| O=C(N[C@H](c1ccccc1)C1CC1)c1ccc2[nH]nc(-c3ccc(N4CCN(C5COC5)CC4)cc3)c2c1 [Example A399, (S)-N-(cyclopropyl(phenyl)methyl)-3-(4-(4-(oxetan-3-yl)piperazin-1-yl)phenyl)-1H-indazole-5-carboxamide] | < 0.1 | < 0.1 | 0.1 to 0.5 | – | – | – | – |
| O=C(N[C@H](c1ccccn1)C1CC1)c1ccc2[nH]nc(-c3ccc(N4CCN(C5COC5)CC4)cc3)c2c1 [Example A401, (S)-N-(cyclopropyl(pyridin-2-yl)methyl)-3-(4-(4-(oxetan-3-yl)piperazin-1-yl)phenyl)-1H-indazole-5-carboxamide] | < 0.1 | < 0.1 | < 0.1 | – | – | – | – |
| CCC(CNC(=O)c1ccc2[nH]nc(-c3ccc(N4CCOCC4)cc3)c2c1)c1ccccc1 (stereo not drawn) [Example A407, 3-(4-morpholinophenyl)-N-(2-phenylbutyl)-1H-indazole-5-carboxamide] | < 0.1 | > 0.5 | > 0.5 | – | – | – | – |
| O=C(NCC1(N2CCOCC2)CCCCC1)c1ccc2[nH]nc(-c3ccc(N4CCC(O)CC4)cc3)c2c1 [Example A427, 3-(4-(4-hydroxypiperidin-1-yl)phenyl)-N-((1-morpholinocyclohexyl)methyl)-1H-indazole-5-carboxamide] | < 0.1 | – | – | – | – | < 0.1 | < 0.1 |
| CN1CCC(Oc2ccc(-c3n[nH]c4ccc(C(=O)NCC5(N6CCOCC6)CCCC5)cc34)cc2)CC1 [Example A428, 3-(4-((1-methylpiperidin-4-yl)oxy)phenyl)-N-((1-morpholinocyclopentyl)methyl)-1H-indazole-5-carboxamide] | < 0.1 | – | – | – | – | 0.1 to 0.5 | 0.1 to 0.5 |
| CN1CCC(Oc2ccc(-c3n[nH]c4ccc(C(=O)NCC5(N6CCOCC6)CCCCCC5)cc34)cc2)CC1 [Example A429, 3-(4-((1-methylpiperidin-4-yl)oxy)phenyl)-N-((1-morpholinocycloheptyl)methyl)-1H-indazole-5-carboxamide] | < 0.1 | – | – | – | – | < 0.1 | 0.1 to 0.5 |
